{"source": "patent US20170071991A1", "about": "“Oncolytic Virus and Aurora Kinase Inhibitor for the Treatment of Cancer” (priority 2014, published 2017)", "key": {"[1]": {"details": "pro-drug; cited from earlier work"}, "[2]": {"details": "human plasma; cited from earlier work"}, "[3]": {"tested_on": "human acute myelogenous leukemia (HL60) nude mice xenografts", "details": "cited from earlier work"}, "[4]": {"tested_on": "human colon cancer (HCT116) nude rat xenograft", "details": "HCT116 nude rat xenograft model; cited from earlier work"}, "S462TY flank xenografts": {"tested_on": "S462TY flank xenografts", "assay": "S462TY nude mouse flank xenograft, single HSV1716 dose plus MLN8237 20 mg/kg twice daily", "assay_type": "in vivo, nude mice", "procedure": "Single intratumoral (ITu) injections of 1.0×10^7 pfu HSV1716 or PBS or single intravenous (IV) injections of 9.0×10^7 pfu HSV1716 or PBS were administered on day 7 and tumor growth and survival were monitored."}, "S462TY xenografts": {"tested_on": "S462TY xenografts", "assay": "S462TY nude mouse xenograft, multiple cycles of lower dose MLN8237 plus HSV1716", "assay_type": "in vivo, nude mice", "details": "multiple weekly ITu HSV1716 1×10^7 pfu and/or MLN8237 10 mg/kg once daily 5-day cycles", "excerpt": "The schema used for each of the 4 groups is shown in FIG. 8 and tumor growth and survival were monitored throughout the experiment."}, "[5]": {"tested_on": "SK-N-AS flank xenografts (neuroblastoma)", "assay": "SK-N-AS nude mouse flank xenograft model", "assay_type": "in vivo, nude mice", "excerpt": "SK-N-AS cells were derived from a bone marrow metastasis […] of a child with poorly differentiated embryonal neuroblastoma and the cell line readily formed flank xenografts in nude mice. […] The schema used for each of the 4 groups is shown in FIG. 13 and tumor growth and survival were monitored throughout the experiment."}, "[6]": {"tested_on": "HSV1716 titre in S462TY xenografts", "assay": "HSV1716 titration of S462TY xenograft tumours after ITu injection", "assay_type": "in vivo, mice", "excerpt": "MLN8237-treated or control, untreated mice with S462TY xenografts received ITu HSV1716 and tumours, removed at 2 and 48 hrs after virus administration, were titrated (FIG. 18)."}, "[7]": {"tested_on": "HSV1716 uptake by S462TY cells", "assay": "Quantitative PCR for HSV1716 genomes in S462TY cells in vitro", "assay_type": "cell-based", "details": "30 min post infection, acid wash", "procedure": "S462TY cells were infected with HSV1716 and an acid wash after 30 mins was used to remove residual free virus which had not penetrated intracellularly."}, "[8]": {"tested_on": "multiple tumor cell lines", "details": "values as low as; read-out: GI50, growth of multiple tumor cell lines; cited from earlier work"}, "[9]": {"tested_on": "receptors and ion channels", "details": "cited from earlier work"}, "[10]": {"details": "cited from earlier work"}, "[11]": {"tested_on": "senescence-associated beta-galactosidase in S462TY xenografts", "assay": "Senescence detection with X-gal (SA-β-gal) in S462TY xenografts"}, "[12]": {"details": "S462TY flank xenografts, best response for at least 21 days, last response day 53, route as in label"}, "[13]": {"details": "S462TY flank xenografts, day 53, route as in label"}}, "note": "“Also recorded” adds a separate entry of the source."}
{"smiles": "CCN(CCCOc1ccc2c(Nc3cc(CC(=O)Nc4cccc(F)c4)n[nH]3)ncnc2c1)CCOP(=O)(O)O", "note": "[AZD1152]", "values": [{"measurement": "solubility", "setting": "[1]", "value": "highly soluble"}, {"measurement": "cleavage of pro-drug to active drug substance AZD1152 hydroxy-QPA", "setting": "[2]", "value": "cleaved completely"}]}
{"smiles": "Cc1cc(Nc2cc(N3CCN(C)CC3)nc(Sc3ccc(NC(=O)C4CC4)cc3)n2)n[nH]1", "note": "[MK0457]", "values": [{"measurement": "reduction in tumor volume when compared with controls", "setting": "[3]", "value": 98, "unit": "%"}, {"measurement": "tumor regression, rats treated", "setting": "[4]", "value": "four of the seven rats"}]}
{"smiles": "COc1cc(Nc2ncc3c(n2)-c2ccc(Cl)cc2C(c2c(F)cccc2OC)=NC3)ccc1C(=O)O", "note": "[MLN8237]", "values": [{"measurement": "tumor growth of S462TY xenografts (FIG. 5a)", "setting": "S462TY flank xenografts; HSV1716 single ITu 1.0×10^7 pfu day 7 and/or MLN8237 20 mg/kg oral twice daily, 42 days", "value": "initially effective at preventing growth of the xenografts"}, {"measurement": "survival compared to vehicle/PBS-treated controls (FIG. 6)", "setting": "S462TY flank xenografts; HSV1716 single ITu 1×10^7 pfu day 7 and/or MLN8237 20 mg/kg twice daily", "value": "improved survival"}, {"measurement": "PR-->PD, evaluable mice", "setting": "S462TY flank xenografts; [12]", "value": 0}, {"measurement": "SD-->PD, evaluable mice", "setting": "S462TY flank xenografts; [12]", "value": 6}, {"measurement": "PD (Progressive Disease), evaluable mice", "setting": "S462TY flank xenografts; S462TY flank xenografts, day 53 (11 days after last treatment), MLN8237 20 mg/kg oral twice daily 5 d/week 42 days, HSV1716 single ITu 1.0×10^7 or IV 9.0×10^7 pfu day 7, route as in label", "value": 4}, {"measurement": "CR (Complete Response), evaluable mice", "setting": "S462TY flank xenografts; [13]", "value": 0}, {"measurement": "PR (Partial Response), evaluable mice", "setting": "S462TY flank xenografts; [13]", "value": 0}, {"measurement": "day by which most of the mice had been sacrificed", "setting": "S462TY flank xenografts; single agents: IV HSV1716, MLN8237 twice daily doses", "value": "≤ 60", "unit": "days"}, {"measurement": "tumor growth of S462TY xenografts (FIG. 9, 10)", "setting": "S462TY xenografts", "value": "reduced the growth"}, {"measurement": "tumor growth, comparison between the four groups on day 21 (FIG. 16)", "setting": "[5]; day 21", "value": "highly significant reduction in tumor growth"}, {"measurement": "mice still alive on day 25", "setting": "[5]; day 25, single agents", "value": "approximately 50%"}, {"measurement": "tumor growth of SK-N-AS xenografts (FIG. 14)", "setting": "[5]; five weekly ITu HSV1716 1×10^7 pfu and/or MLN8237 10 mg/kg once daily 5-day cycles", "value": "reduced the growth"}, {"measurement": "free input virus detected in MLN8237-treated tumours", "setting": "[6]; 2 hrs after ITu HSV1716", "value": "less of the free input virus detected"}, {"measurement": "virus titre in MLN8237-treated compared to untreated control tumors", "setting": "[6]; 48 hrs after ITu HSV1716", "value": "no apparent increase in virus titre"}, {"measurement": "uptake/infection rate of HSV1716 (intracellular genomes, Q-PCR normalised to GAPDH)", "setting": "[7]", "value": "significantly increases intracellular HSV1716 genomes; also recorded: significantly higher uptake/infection rate"}, {"measurement": "GI50", "setting": "[8]", "value": "≥ 16", "unit": "nM"}, {"measurement": "cross-reactivity in broad screen of receptors and ion channels", "setting": "[9]", "value": "no significant cross-reactivity"}, {"measurement": "oral availability and absorption", "setting": "[10]", "value": "orally available and rapidly absorbed"}, {"measurement": "sections staining after incubation with X-gal (MLN8237-induced senescence)", "setting": "[11]", "value": "1/18"}]}
